US10690661B2, “Yeast-based biosensor” (priority 2014, dated 2020)
“Also recorded” adds a separate entry of the source.

Tests used:
[1] = target: Mutant receptors derived from RecCys1 mutagenesis; assay: Dose response of mutant receptors evolved for cystatin chimera Cys2; type: cell-based, Saccharomyces cerevisiae; settings: FIG. 9b
Description: (§1) Receptor activation was coupled to green fluorescent protein (GFP) expression by cloning GFP downstream of the Ste2p-activated FUS1 promoter. Therefore a receptor mutant that is successfully activated by the POI will result in the cell fluorescing green. The discriminating power of the screen is improved by including an internal control, constitutive expression of mKate (a red fluorescent protein). Red fluorescence corresponds to cell size, and allows us to normalize the GFP measurement for more accurate sorting. […] The initial HTS has false positive (FP) rates of 20% and false negative (FN) rates of 10%. The FP and FN rate is overcome by doing multiple rounds of enrichment. In four rounds of enrichment, a population of cells is isolated that originally was 1 in 10^6.
(§2) Initial attempts to evolve directly for the cystatin/GSS peptides were unsuccessful. To take smaller evolutionary steps, chimera peptides were designed that were more similar to α-factor. Receptors were evolved to recognize peptide that contain several changes in the peptide sequence (FIG. 9a-c).
Receptors have been successfully evolved for some chimeras. Two steps have been completed for cystatin (evolving for Cys1 and then using that receptor as a parent to evolve for Cys2) and one step for GSS.

[2] = test system: evolved cystatin receptor; type: cell-based, Saccharomyces cerevisiae
[3] = target: Mutant receptors (RecCys1); assay: Dose response of mutant receptors evolved for cystatin chimera Cys1; type: cell-based, Saccharomyces cerevisiae; settings: FIG. 9a
Description: as §1, §2

[4] = test system: Mutant receptor RecGssB; assay: Dose response of mutant receptors evolved for GSS chimera GssB; type: cell-based, Saccharomyces cerevisiae
Description: as §1, §2

[5] = target: T1, native Ste2 receptor (Saccharomyces cerevisiae, UniProt D6VTK4, A176T/D201G/D370N/S34T); settings: physiological concentrations; previous literature; cited from earlier work
T1 construct: contains yeast Sterile2 (Ste2) receptor between the constitutive GPD promoter and the CYC1 terminator; expressed in transfected cells; host or cells: S. cerevisiae MPY578t5 derivatives (native STE2 removed), plasmid pJB036

[6] = test system: evolved receptors (from Ste2p); assay: Sensitivity enhancement dose response of evolved receptors; type: cell-based, Saccharomyces cerevisiae; settings: FIG. 11
[7] = target: Mutant 44.1 (mutant Ste2 receptor); assay: GFP/RFP reporter dose response, isolated mutant receptor Mutant 44.1; settings: alpha factor on Mutant 44.1, compared with native Ste2; FIG. 3B
[8] = target: Mutant 56.5 (mutant Ste2 receptor); assay: GFP/RFP reporter dose response, isolated mutant receptor Mutant 56.5; settings: alpha factor on Mutant 56.5, compared with native Ste2; FIG. 4B
[9] = test system: mutant Ste2 receptors isolated for Variant 56; assay: GFP/RFP reporter dose response, mutants isolated for sensitivity to ligand Variant 56
[10] = target: T1, native Ste2 receptor; assay: GFP/RFP reporter dose response in yeast expressing the native Ste2 receptor; type: cell-based; settings: compared to the native ligand
[11] = test system: re-mutagenized mutant Ste2 receptor library; assay: Screen of library made by re-mutagenizing a Variant 56-sensitive mutant receptor; type: cell-based, Saccharomyces cerevisiae; settings: FIG. 7a
Description: Specificity can be increased with iterative selection and counter-selection (FIG. 7b). […] Round 2 library mutants were also screened for lack of activity for α-factor, confirming the evolution of receptors for specificity against α-factor (FIG. 7c).

T1 sequence (D6VTK4 whole entry S34T/A176T/D201G/D370N): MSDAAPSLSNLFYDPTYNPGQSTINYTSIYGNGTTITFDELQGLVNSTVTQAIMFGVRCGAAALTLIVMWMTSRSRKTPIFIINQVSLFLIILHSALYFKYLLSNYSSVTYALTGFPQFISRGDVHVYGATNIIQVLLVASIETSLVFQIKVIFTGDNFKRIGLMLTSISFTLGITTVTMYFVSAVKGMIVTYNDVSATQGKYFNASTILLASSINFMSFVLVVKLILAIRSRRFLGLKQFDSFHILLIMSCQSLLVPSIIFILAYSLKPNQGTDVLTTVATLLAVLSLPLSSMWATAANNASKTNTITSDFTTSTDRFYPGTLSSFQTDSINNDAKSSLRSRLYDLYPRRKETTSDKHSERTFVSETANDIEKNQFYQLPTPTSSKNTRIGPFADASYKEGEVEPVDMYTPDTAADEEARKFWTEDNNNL

ALALKPGEPMY [Cys2]
EC50 relative to RecSte2p [1]: lower

ALDFAVGEYNK (listed as Cystatin chimera) [Cys5]
response of evolved cystatin receptor ([2]; FIG. 13B): rises in response | response of receptor mutants evolved from Ste2p (dose response curve) ([2]; FIG. 14A-C): respond

HALALKPGEPMY [Cys1]
EC50 relative to RecSte2p [3]: lower

LRLLALKPGQPLYGR [Gss1]
effect of GssB-enhancing receptor mutations on response ([4]; receptors carrying mutations that enhance the response to GssB): enhance response

WAWLQLKPGQPMY
response of Ste2 to the ligand [5]: very low response, if any

WHWLQLKPGEPLYGR [GssB]
EC50 relative to RecSte2p ([4]; FIG. 9c): lower

WHWLQLKPGQPMY [α-factor]
response of evolved receptor to the native ligand ([4]; FIG. 9d): do not respond; also recorded: no longer responds | concentration at which evolved receptors respond, relative to wild type/Ste2p receptor [6]: concentrations lower than the wild type | EC50 relative to Ste2 [7]: significantly higher | EC50 relative to Ste2 [8]: significantly higher | activity of isolated mutants for the native pheromone ([9]; FIG. 4B): maintained some activity

WHYLQLKPGQPMY [Variant 56]
activity of the native Ste2 receptor for the ligand [10]: little activity | activity of new library after second round of mutagenesis [11]: increased activity | response of Ste2 to the ligand [5]: very low response, if any | EC50 relative to Ste2 ([9]; all five isolated mutants, FIG. 4A, FIG. 5): significantly lower
